Tests used:
Type in all cases: cell-based
[1] = system: Botrytis cinerea; assay: Example 1: activity against the grey mold Botrytis cinerea in the microtiterplate test; settings: 31 ppm active substance; relative to compound-free control (100%); 405 nm, 7 days after inoculation
[2] = system: Fusarium culmorum; assay: Example 2: activity against Fusarium culmorum in the microtiterplate test; settings: 31 ppm active substance; relative to compound-free control (100%); 405 nm, 7 days after inoculation
Description: The active compounds were formulated separately as a stock solution having a concentration of 10000 ppm in dimethyl sulfoxide.
The stock solutions were mixed according to the ratio, pipetted onto a micro titer plate (MTP) and diluted with water to the stated concentrations. A spore suspension of Fusarium culmorum in an aqueous biomalt or yeast-bactopeptone-glycerine or DOB solution was then added. The plates were placed in a water vapor-saturated chamber at a temperature of 18° C. Using an absorption photometer, the MTPs were measured at 405 nm 7 days after the inoculation.
(§1) The measured parameters were compared to the growth of the active compound-free control variant (100%) and the fungus-free blank value to determine the relative growth in % of the pathogens in the respective active compounds.

[3] = system: Septoria tritici; assay: Comparative Example 1: activity against leaf blotch on wheat caused by Septoria tritici (microtiter plate); settings: at 125 ppm; relative to compound-free control (100%); 405 nm, 7 days after inoculation
Description: The active compounds were formulated separately as a stock solution having a concentration of 10000 ppm in dimethyl sulfoxide. The stock solutions were mixed according to the ratio, pipetted onto a micro titer plate (MTP) and diluted with water to the stated concentrations. A spore suspension of Septoria tritici in an aqueous biomalt or yeast-bactopeptone-glycerine or DOB solution was then added. The plates were placed in a water vapor-saturated chamber at a temperature of 18° C. Using an absorption photometer, the MTPs were measured at 405 nm 7 days after the inoculation.
as §1

[4] = system: Leptosphaeria nodorum; assay: Comparative Example 2: activity against wheat leaf spots caused by Leptosphaeria nodorum (microtiter plate); settings: relative to compound-free control (100%), 405 nm, 7 days after inoculation
Description: The active compounds were formulated separately as a stock solution having a concentration of 10000 ppm in dimethyl sulfoxide. The stock solutions were mixed according to the ratio, pipetted onto a micro titer plate (MTP) and diluted with water to the stated concentrations. A spore suspension of Leptosphaeria nodorum in an aqueous biomalt or yeast-bactopeptone-glycerine or DOE solution was then added. The plates were placed in a water vapor-saturated chamber at a temperature of 18° C. Using an absorption photometer, the MTPs were measured at 405 nm 7 days after the inoculation.
as §1

[5] = system: Colletotrichum orbiculare; assay: Comparative Example 3: activity against anthracnose caused by Colletotrichum orbiculare in the microtiterplate test; settings: at 2 ppm; relative to compound-free control (100%); 405 nm, 7 days after inoculation
Description: The active compounds were formulated separately as a stock solution having a concentration of 10000 ppm in dimethyl sulfoxide. The stock solutions were mixed according to the ratio, pipetted onto a micro titer plate (MTP) and diluted with water to the stated concentrations. A spore suspension of Colletotrichum orbiculare in an aqueous bio malt solution was then added. The plates were placed in a water vapor-saturated chamber at a temperature of 18° C. Using an absorption photometer, the MTPs were measured at 405 nm 7 days after the inoculation.
as §1

Structure (SMILES)	growth of the pathogen [1] [%]	growth of the pathogen [2] [%]	Growth (%) at 125 pm [3] [%]	Growth (%) at 125 pm [4] [%]	Growth (%) at 2 pm [5] [%]
Cc1cc(C2=NC(C)(C(C)(C)C)Oc3ccccc32)cnc1C (stereo not shown) [Ex-2]	0	–	–	–	–
Cc1cc(C2=NC(C)(C(C)(C)C)Oc3ccccc32)cnc1C(F)F (stereo not shown) [Ex-3]	0	–	–	–	–
Cc1cc(C2=NC3(CCC(C)(C)C3)Oc3ccccc32)cnc1C (stereo not shown) [Ex-4]	0	1	–	–	–
Cc1cc(C2=NC(C)(C(C)C)Oc3ccccc32)cnc1C (stereo not shown) [Ex-5]	0	–	–	–	–
Cc1cc(C2=NC(C)(C)Oc3ccccc32)cnc1C [Ex-6]	0	1	–	–	–
Cc1cc(C2=NC(C)(c3ccc(Cl)cc3)Oc3ccccc32)cnc1C(F)F (stereo not shown) [Ex-51]	–	–	46	15	22
Cc1cc(C2=NC(C)(Cc3ccc(F)cc3)Oc3ccccc32)cnc1C(F)F (stereo not shown) [Ex-58]	–	–	73	8	55
CC1(c2ccc(Cl)cc2)N=C(c2ccc(Cl)nc2)c2ccccc2O1 (stereo not shown) [reference compound]	–	–	69	47	88
CC1(Cc2ccc(F)cc2)N=C(c2ccc(Cl)nc2)c2ccccc2O1 (stereo not shown) [reference compound]	–	–	93	43	96

— patent US20240294544A1, “NEW SUBSTITUTED PYRIDINES AS FUNGICIDES” (BASF SE, priority 2021, published 2024)
